Laboratory results reported in patent US11466034B2, “Compound functioning as bromodomain protein inhibitor, and composition” (Betta Pharmaceuticals Co., Ltd., priority 2017, dated 2022).

How the values were obtained:
[1] = Stability test of Compound 19 crystalline form I (XRD); assay type: physicochemical
[2] = Pharmacokinetic assay in male SD rats, single gavage; assay type: in vivo; settings: Sprague-Dawley (SD), rat, plasma
Description: Male SD rats were offered by Beijing Vital River Laboratory Animal Technology Co., Ltd., the rats were divided into groups of 3, and the suspension of the test sample (5 mg/kg-20 mg/kg) was given by single gavage. The animals were fasted overnight before the experiment, the fasting time was from 10 hours before the administration to 4 hours after the administration. Blood was collected at 0.25, 0.5, 1, 2, 4, 7, and 24 hours after administration. Blood was collected from fundus venous plexus, and placed in EDTA-K2 anticoagulation tube. The sample was centrifuged at 4° C. and 4000 rpm for 10 min, the plasma was transferred into centrifuge tubes and the compound to be test was extracted by protein precipitation, the extract was analyzed by LC-MS/MS.

[3] = target: BRD4(D1) (Homo sapiens (Human), UniProt O60885); assay: Inhibitory activity against BRD4(D1), HTRF assay; assay type: binding
Description: (§1) (+)-JQ1 was used as comparison compound, to evaluated the inhibitory activity of compounds of the invention against BRD4(D1) and BRD4(D2) in vitro.
(§2) The assays of BRD4 (D1) and BRD4 (D2) were conducted in a 384-well polystyrene plate. The test compounds were first serially diluted in DMSO and the test compound/DMSO were transferred to 384-well plates. The final concentration of DMSO in the assay was 0.1%. 2 volumes of protein/peptide mixture were added into 384-well plates, then 2 volumes of assay mixture were added, and shake for 30 s. The plate was incubated at room temperature for 2 h. Then the HTRF signal on EnVision was readed.
(§3) Use equation (1) to fit the date in Excel to obtain the value of the inhibition rate. Inhibition rate (%)=(maximum value−signal value)/(maximum value−minimum value)*100 Equation(1):
(§4) IC50 determination was performed by fitting the data using GraphPad Prism 5.0 software and equation (2). Y=bottom+(Top−bottom)/(1+10^((Log IC50−X)*HillSlope)); Equation(2): wherein, Y represents the percentage of inhibition (%); X represents the concentration of test compounds.
(§5) The IC50 data of the examples were provided in the following table, wherein, A stands for IC50<100 nM; B stands for IC50 is 100-300 nM; C stands for IC50>300 nM.

[4] = target: BRD4(D2) (Homo sapiens (Human), UniProt O60885); assay: Inhibitory activity against BRD4(D2), HTRF assay; assay type: binding
Description: as §1, §2, §3, §4, §5

Row | Compound | AUC(0-t) ([2]; oral dose 10 mg/kg) | Cmax ([2]; oral dose 10 mg/kg) | half-life ([2]; oral dose 10 mg/kg) | IC50 ([3]; numeric values) | IC50 ([4]; numeric values) | IC50 ([3]; class symbols) | IC50 ([4]; class symbols) | other results
1 | Cc1nc2ncc(-c3cn(C)c(=O)c4[nH]ccc34)nc2n1Cc1ccc(C(F)(F)F)cc1 [Crystalline Form I of compound 19, 6-methyl-4-(2-methyl-1-(4-(trifluoromethyl)benzyl)-1H-imidazo[4,5-b]pyrazin-6-yl)-1H-pyrrolo[2,3-c]pyridin-7(6H)-one] | – | – | – | – | – | – | – | solid form stability (XRD) ([1]; 25° C.-60% RH for 10 days): no solid form change; solid form stability (XRD) ([1]; 40° C.-75% RH for 14 days): no solid form change; solid form stability (XRD) ([1]; dried at 80° C. for 24 hours): no solid form change
2 | Cc1nc2ncc(-c3cn(C)c(=O)c4[nH]ccc34)nc2n1Cc1ccc(Cl)cc1 [Example 18, 4-(1-(4-chlorobenzyl)-2-methyl-1H-imidazo[4,5-b]pyrazin-6-yl)-6-methyl-1H-pyrrolo[2,3-c]pyridin-7(6H)-one] | 2290 ng·h/mL | 224 ng/mL | 3.4 h | – | – | – | – | –
3 | Cc1nc2ncc(-c3cn(C)c(=O)c4[nH]ccc34)nc2n1Cc1ccc(C(F)(F)F)cc1 [Example 19, 6-methyl-4-(2-methyl-1-(4-(trifluoromethyl)benzyl)-1H-imidazo[4,5-b]pyrazin-6-yl)-1H-pyrrolo[2,3-c]pyridin-7(6H)-one] | 9430 ng·h/mL | 730 ng/mL | 4.5 h | 9.1 nM | 1.6 nM | – | – | –
4 | Cc1nc2ncc(-c3cn(C)c(=O)c4[nH]ccc34)nc2n1Cc1cccc(C(F)(F)F)c1 [Example 23, 4-(1-(3-trifluoromethylbenzyl)-2-methyl-1H-imidazo[4,5-b]pyrazin-6-yl)-6-methyl-1H-pyrrolo[2,3-c]pyridin-7(6H)-one] | 2830 ng·h/mL | 407 ng/mL | 3.3 h | – | – | < 100 nM | < 100 nM | –
5 | Cc1nc2ncc(-c3cn(C)c(=O)c4[nH]ccc34)nc2n1Cc1cc(F)cc(C(F)(F)F)c1 [Example 25, 4-(1-(3-fluoro-5-trifluoromethylbenzyl)-2-methyl-1H-imidazo[4,5-b]pyrazin-6-yl)-6-methyl-1H-pyrrolo[2,3-c]pyridin-7(6H)-one] | – | – | – | – | – | < 100 nM | < 100 nM | AUC(0-t) ([2]; oral dose 20 mg/kg): 13500 ng·h/mL; Cmax ([2]; oral dose 20 mg/kg): 1230 ng/mL; half-life ([2]; oral dose 20 mg/kg): 12.1 h
6 | Cc1nc2ncc(-c3cn(C)c(=O)c4[nH]ccc34)nc2n1Cc1ccc(Cl)c(C(F)(F)F)c1 [Example 27, 4-(1-(3-trifluoromethyl-4-chlorobenzyl)-2-methyl-1H-imidazo[4,5-b]pyrazin-6-yl)-6-methyl-1H-pyrrolo[2,3-c]pyridin-7(6H)-one] | 8500 ng·h/mL | 1000 ng/mL | 3.8 h | – | – | < 100 nM | < 100 nM | –
7 | Cn1cc(-c2cnc3cnn(Cc4ccc(Cl)cc4)c3c2)c2cc[nH]c2c1=O [Example 39, 4-(1-(4-chlorobenzyl)-1H-pyrazolo[4,3-b]pyridin-6-yl)-6-methyl-1,6-dihydro-7H-pyrrolo[2,3-c]pyridin-7-one] | 24000 ng·h/mL | 1700 ng/mL | 4.1 h | 21.2 nM | 7.9 nM | – | – | –
8 | CCS(=O)(=O)Nc1cc(-c2cn(C)c(=O)c3[nH]ccc23)nc2c1ncn2Cc1ccc(C(F)(F)F)cc1 [Example 58, N-(5-(6-methyl-7-oxo-6,7-dihydro-1H-pyrrolo[2,3-c]pyridin-4-yl)-3-(4-(trifluoromethyl)benzyl)-3H-imidazo[4,5-b]pyridin-7-yl)ethanesulfonamide] | 5100 ng·h/mL | 1960 ng/mL | 2.3 h | 1.6 nM | 0.5 nM | – | – | –
9 | CCS(=O)(=O)Nc1cc(-c2cn(C)c(=O)c3[nH]ccc23)nc2c1ncn2Cc1ccc(F)cc1F [Example 59, N-(3-(2,4-difluorobenzyl)-5-(6-methyl-7-oxo-6,7-dihydro-1H-pyrrolo[2,3-c]pyridin-4-yl)-3H-imidazo[4,5-b]pyridin-7-yl)ethanesulfonamide] | – | – | – | 1.2 nM | 0.5 nM | – | – | AUC(0-t) ([2]; oral dose 5 mg/kg): 10200 ng·h/mL; Cmax ([2]; oral dose 5 mg/kg): 3290 ng/mL; half-life ([2]; oral dose 5 mg/kg): 2.3 h
10 | CCS(=O)(=O)Nc1cc(-c2cn(C)c(=O)c3[nH]ccc23)nc2c1nc(C)n2Cc1ccc(F)cc1F [Example 64, N-(3-(2,4-difluorobenzyl)-2-methyl-5-(6-methyl-7-oxo-6,7-dihydro-1H-pyrrolo[2,3-c]pyridin-4-yl)-3H-imidazo[4,5-b]pyridin-7-yl)ethanesulfonamide] | – | – | – | 1.1 nM | 0.5 nM | – | – | AUC(0-t) ([2]; oral dose 6.7 mg/kg): 5590 ng·h/mL; Cmax ([2]; oral dose 6.7 mg/kg): 1480 ng/mL; half-life ([2]; oral dose 6.7 mg/kg): 3.5 h
11 | CCS(=O)(=O)Nc1cc(-c2cn(C)c(=O)c3[nH]ccc23)nc2c1nc(C)n2Cc1ccc(C(F)(F)F)cc1 [Example 65, N-(2-methyl-5-(6-methyl-7-oxo-6,7-dihydro-1H-pyrrolo[2,3-c]pyridin-4-yl)-3-(4-(trifluoromethyl)benzyl)-3H-imidazo[4,5-b]pyridin-7-yl)ethanesulfonamide] | – | – | – | – | – | < 100 nM | < 100 nM | –
12 | CCS(=O)(=O)Nc1cc(-c2cn(C)c(=O)c3[nH]ccc23)nc2c1nc(C)n2Cc1ccccc1C(F)(F)F [Example 66, N-(2-methyl-5-(6-methyl-7-oxo-6,7-dihydro-1H-pyrrolo[2,3-c]pyridin-4-yl)-3-(2-(trifluoromethyl)benzyl)-3H-imidazo[4,5-b]pyridin-7-yl)ethanesulfonamide] | – | – | – | – | – | < 100 nM | < 100 nM | –
13 | CCS(=O)(=O)Nc1cc(-c2cn(C)c(=O)c3[nH]ccc23)nc2c1nc(C)n2Cc1cc(F)cc(F)c1 [Example 67, N-(3-(3,5-difluorobenzyl)-2-methyl-5-(6-methyl-7-oxo-6,7-dihydro-H-pyrrolo[2,3-c]pyridin-4-yl)-3H-imidazo[4,5-b]pyridin-7-yl)ethanesulfonamide] | – | – | – | – | – | < 100 nM | < 100 nM | –
14 | CCS(=O)(=O)Nc1cc(-c2cn(C)c(=O)c3[nH]ccc23)nc2c1nc(C)n2Cc1c(C)cccc1C [Example 68, N-(3-(2,6-dimethylbenzyl)-2-methyl-5-(6-methyl-7-oxo-6,7-dihydro-1H-pyrrolo[2,3-c]pyridin-4-yl)-3H-imidazo[4,5-b]pyridin-7-yl)ethanesulfonamide] | – | – | – | – | – | < 100 nM | < 100 nM | –
